From PubChem BioAssay (NCI)
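Compound exposure: 48 hours, 5 concentrations, 96-well plates. Definition used: TGI = concentration required for complete inhibition of growth.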

Tests used:
Test in all cases: growth of human tumour cells (NCI), 48 h
[1] = system: 786-0 renal
[2] = system: A498 renal
[3] = system: A549 NSCLC
[4] = system: ACHN renal
[5] = system: BT-549 breast
[6] = system: CAKI-1 renal
[7] = system: CCRF-CEM leukemia
[8] = system: COLO 205 colon
[9] = system: DU-145 prostate
[10] = system: EKVX NSCLC
[11] = system: HCC-2998 colon
[12] = system: HCT-116 colon
[13] = system: HCT-15 colon
[14] = system: HL-60(TB) leukemia
[15] = system: HOP-62 NSCLC
[16] = system: HOP-92 NSCLC
[17] = system: HS 578T breast
[18] = system: HT29 colon
[19] = system: IGROV1 ovarian
[20] = system: K-562 leukemia
[21] = system: KM12 colon
[22] = system: LOX IMVI melanoma
[23] = system: M14 melanoma
[24] = system: MALME-3M melanoma
[25] = system: MCF7 breast
[26] = system: MDA-MB-231 breast
[27] = system: MDA-MB-435
[28] = system: MDA-N
[29] = system: MOLT-4 leukemia
[30] = system: NCI-H226 lung
[31] = system: NCI-H23 lung
[32] = system: NCI-H460 lung
[33] = system: NCI-H522 lung
[34] = system: NCI/ADR-RES ovarian
[35] = system: OVCAR-3 ovarian
[36] = system: OVCAR-4 ovarian
[37] = system: OVCAR-5 ovarian
[38] = system: OVCAR-8 ovarian
[39] = system: PC-3 prostate
[40] = system: RPMI-8226 leukemia
[41] = system: RXF 393 renal
[42] = system: SF-295 CNS
[43] = system: SF-539 CNS
[44] = system: SK-MEL-2 melanoma
[45] = system: SK-MEL-28 melanoma
[46] = system: SK-MEL-5 melanoma
[47] = system: SK-OV-3 ovarian
[48] = system: SN12C renal
[49] = system: SNB-19 CNS
[50] = system: SNB-75 CNS
[51] = system: SW-620 colon
[52] = system: T-47D breast
[53] = system: TK-10 renal
[54] = system: U251 CNS
[55] = system: UACC-257 melanoma
[56] = system: UACC-62 melanoma
[57] = system: UO-31 renal
[58] = system: SF-268 CNS

`Cc1c2cccc-2c(OCCO)cc2c1[nH]c1ccccc12` was tested, and the TGI [1] was 7.14 µM, the TGI [2] was > 31.6 µM and the TGI [3] was 11.6 µM. The TGI [4] was 2.72 µM, the TGI [5] was 7.34 µM and the TGI [6] was 3.67 µM. The TGI [7] was > 29.6 µM, the TGI [8] was 9.4 µM and the TGI [9] was > 50.1 µM. For the same compound, the TGI [10] was 5.18 µM, the TGI [11] was 12.1 µM and the TGI [12] was > 23.2 µM. The TGI [13] was 22.9 µM, the TGI [14] was > 19.9 µM and the TGI [15] was 14.5 µM. The TGI [16] was > 28.7 µM, the TGI [17] was > 49.6 µM and the TGI [18] was 14.2 µM. The TGI [19] was 8.92 µM, the TGI [20] was > 24.3 µM and the TGI [21] was 7.04 µM. The TGI [22] was 4.97 µM, the TGI [23] was 4.36 µM and the TGI [24] was 3.49 µM. For the same compound, the TGI [25] was 19.4 µM, the TGI [26] was 6.56 µM and the TGI [27] was 15.8 µM. For the same compound, the TGI [28] was 7.9 µM, the TGI [29] was 20.1 µM and the TGI [30] was 21 µM. For the same compound, the TGI [31] was 12.3 µM, the TGI [32] was 18.3 µM and the TGI [33] was 5.38 µM. The TGI [34] was > 23.4 µM, the TGI [35] was 3.75 µM and the TGI [36] was 13.5 µM. For the same compound, the TGI [37] was 5.83 µM, the TGI [38] was 15.7 µM and the TGI [39] was 7.89 µM. It also gave a TGI [40] of 8.52 µM, a TGI [41] of 5.37 µM and a TGI [42] of 14.7 µM. For the same compound, the TGI [43] was 3.5 µM, the TGI [44] was 12 µM and the TGI [45] was 20.6 µM. It also gave a TGI [46] of 2.95 µM, a TGI [47] of 14.4 µM and a TGI [48] of 11.8 µM. The TGI [49] was 18.6 µM, the TGI [50] was 3.95 µM and the TGI [51] was > 74.7 µM. It also gave a TGI [52] of 24.2 µM, a TGI [53] of 14.2 µM and a TGI [54] of 3.78 µM. For the same compound, the TGI [55] was 10.7 µM, the TGI [56] was 8.71 µM and the TGI [57] was 3.09 µM.
In the case of `CCN(CC)C1=Nc2ccccc2-n2c(C)cnc2C1`, the TGI [1] is reported as > 100 µM, the TGI [2] is reported as > 100 µM and the TGI [3] is reported as > 100 µM. For the same compound, the TGI [4] was > 100 µM, the TGI [5] was > 100 µM and the TGI [6] was > 100 µM. For the same compound, the TGI [7] was > 100 µM, the TGI [8] was > 100 µM and the TGI [9] was > 100 µM. For the same compound, the TGI [10] was > 100 µM, the TGI [11] was > 100 µM and the TGI [12] was > 100 µM. For the same compound, the TGI [13] was > 100 µM, the TGI [14] was > 100 µM and the TGI [16] was > 100 µM. The TGI [17] was > 100 µM, the TGI [18] was > 100 µM and the TGI [19] was > 100 µM. The TGI [20] was > 100 µM, the TGI [21] was > 100 µM and the TGI [22] was > 100 µM. For the same compound, the TGI [23] was > 100 µM, the TGI [24] was > 100 µM and the TGI [25] was > 100 µM. The TGI [26] was > 100 µM, the TGI [27] was > 100 µM and the TGI [28] was > 100 µM. For the same compound, the TGI [29] was > 100 µM, the TGI [30] was > 100 µM and the TGI [31] was > 100 µM. For the same compound, the TGI [32] was > 100 µM, the TGI [33] was > 100 µM and the TGI [34] was > 100 µM. The TGI [35] was > 100 µM, the TGI [36] was > 100 µM and the TGI [37] was > 100 µM. For the same compound, the TGI [38] was > 100 µM, the TGI [39] was > 100 µM and the TGI [40] was > 100 µM. The TGI [41] was > 100 µM, the TGI [58] was > 100 µM and the TGI [42] was > 100 µM. For the same compound, the TGI [43] was > 100 µM, the TGI [44] was > 100 µM and the TGI [45] was > 100 µM. The TGI [46] was > 100 µM, the TGI [47] was > 100 µM and the TGI [48] was > 100 µM. For the same compound, the TGI [49] was > 100 µM, the TGI [50] was > 100 µM and the TGI [51] was > 100 µM. For the same compound, the TGI [52] was > 100 µM, the TGI [53] was > 100 µM and the TGI [54] was > 100 µM. For the same compound, the TGI [55] was > 100 µM, the TGI [56] was > 100 µM and the TGI [57] was > 100 µM.
